Data from patent publication US12371438B2, “Ginkgolide B derivative and salt thereof, preparation method therefor and use thereof” (HUILING JINXIN (SHANGHAI) PHARMACEUTICAL TECHNOLOGY CO., LTD, priority 2019, dated 2025).
Entries after “also recorded” stand apart in the source; their conditions may differ. Like-named read-outs stand apart in the source and are kept apart here.

What was measured:
[1] = tested on: platelet aggregation; assay: In vitro anti-platelet aggregation activity evaluation (PAF-induced, platelet-rich plasma); format: cell-based, New Zealand white rabbits; details: for inhibitory effect on platelet aggregation in vitro (in words): 1 μM, compared with Ginkgolide B; for activity at 1 µM: Oryctolagus cuniculus, Platelet, read-out: Platelet aggregation rate (%, 1 μM)
Experimental: Experimental method: New Zealand white rabbits were anesthetized with sodium pentobarbital (2%, 2 mL/kg), about 40 mL of blood was obtained by abdominal aortic puncture, and the supernatant was collected as platelet-rich serum (PRP) after centrifugation at 1000 rpm/min for 10 min, the remaining blood was centrifuged at 4000 rpm/min for 10 min, and the supernatant was collected as platelet-poor serum (PPP); blank control group: 100 μL PRP+100 μL normal saline; drug group: 100 μL PRP+100 μL 0.05% DMSO dissolved drug (Ginkgolide B was positive control group), and the final drug concentration was 1 μM.

[2] = tested on: platelet aggregation in SD rats; assay: Anticoagulant activity in SD rats (ADP-induced maximum platelet aggregation rate after gavage); format: in vivo; details: for Average maximum platelet aggregation rate (%): 50 mg/kg by gavage once a day for 3 days, ADP inducer, PAGM within 5 min; for anti-aggregation activity on platelet aggregation in SD rats (in words): 50 mg/kg, n=10, compared with Ginkgolide B
Experimental: Experimental method: Rats were randomly divided into 10 rats in each group, and each group was given the corresponding test drug (50 mg/kg) by gavage after weighing, once a day for 3 days.
150 μL of PRP in each group was sucked and added to the 96-well plate (adjusted to zero by PPP), and ADP inducer was added, the absorbance value A1 was measured at the wavelength of 650 nm in the microplate reader, which was the absorbance value of each group at 0 min; the oscillation mode of the microplate reader was turned on, and the absorbance value A2 was detected again after 5 min, which was the absorbance value of each group at 5 min. Since the addition of ADP would cause platelet aggregation and change the light permeability, the maximum platelet aggregation rate (PAGM) within 5 min was measured according to this principle. Maximum platelet aggregation rate(PAGM)=(A1−A2)/A1×100

[3] = tested on: acute cerebral ischemia in SD rats; assay: Anti-acute cerebral ischemia activity (middle cerebral artery electrocoagulation, TTC staining); format: in vivo
Experimental: At this time, a relatively straight blood vessel with few branches can be seen through the dura mater, that is, the middle cerebral artery. […] The temporal muscle and skin were sutured in turn, and then the rat was administered by gavage (50 mg/kg). After the rats were awakened, they were put back into their cages and continued to be reared for 24 h.
The brain slices were stained in 1% TTC dye solution (incubated at 37° C. in the dark for about 5-10 min), the infarcted area of brain slices after staining was white, while the non-infarcted area was rose red; after staining was completed, the brain slices were moved to 10% formaldehyde solution and kept away from light for 24 hours, finally, a digital camera was used to take pictures, the areas of frontal and reverse infarcted areas and non-infarcted areas were measured by image analysis software (ImageJ, version: 1.4.3.67), and the ratio of infarcted areas in the total infarcted cerebral hemisphere was calculated.

[4] = 1 μM drug, PAF-induced, rabbit PRP, corrected to blank = 100, n=5
[5] = SD rats, 50 mg/kg by gavage after occlusion, 24 h, n=10
[6] = SD rats, 50 mg/kg, n=10, compared with model group / Ginkgolide B, 50 mg/kg
[7] = SD rats, 50 mg/kg by gavage after occlusion, 24 h, n=10, 50 mg/kg

2-(Ginkgolide B-10-oxy) n-pentylamine Acetate [Embodiment 17]
Platelet aggregation rate (%, 1 μM) [1, 4]: 21.90%
inhibitory effect on platelet aggregation in vitro (in words) [1]: significant activity
Average maximum platelet aggregation rate (%) ([2]; n=10): 34.20%
Average area ratio of hemicerebral infarction (%) [3, 5]: 25.31%

2-(Ginkgolide B-10-oxy) pyrrolidine Acetate [Embodiment 18]
Platelet aggregation rate (%, 1 μM) [1, 4]: 26.45%

2-(Ginkgolide B-10-oxy)ammonium Acetate [Embodiment 11]
Platelet aggregation rate (%, 1 μM) [1, 4]: 56.53%

2-(Ginkgolide B-10-oxy)arginine Acetate [Embodiment 13]
Platelet aggregation rate (%, 1 μM) [1, 4]: 15.66%
inhibitory effect on platelet aggregation in vitro (in words) [1]: significant activity
Average maximum platelet aggregation rate (%) ([2]; n=10): 21.25%
anti-aggregation activity on platelet aggregation in SD rats (in words) [2]: particularly significant (P<0.001)
Average area ratio of hemicerebral infarction (%) [3, 5]: 20.14%
activity for reducing the area ratio of hemicerebral infarction in SD rats (in words) [3, 6]: particularly significant (P<0.001)

2-(Ginkgolide B-10-oxy)diethylamine Acetate [Embodiment 16]
Platelet aggregation rate (%, 1 μM) [1, 4]: 28.87%

2-(Ginkgolide B-10-oxy)histidine Acetate [Embodiment 14]
Platelet aggregation rate (%, 1 μM) [1, 4]: 19.74%
inhibitory effect on platelet aggregation in vitro (in words) [1]: significant activity
Average maximum platelet aggregation rate (%) ([2]; n=10): 26.82%
anti-aggregation activity on platelet aggregation in SD rats (in words) [2]: particularly significant (P<0.001)
Average area ratio of hemicerebral infarction (%) [3, 5]: 17.98%
activity for reducing the area ratio of hemicerebral infarction in SD rats (in words) [3, 6]: particularly significant (P<0.001)

2-(Ginkgolide B-10-oxy)lysine Acetate [Embodiment 12]
Platelet aggregation rate (%, 1 μM) [1, 4]: 12.23%
inhibitory effect on platelet aggregation in vitro (in words) [1]: significant activity
Average maximum platelet aggregation rate (%) ([2]; n=10): 22.65%
anti-aggregation activity on platelet aggregation in SD rats (in words) [2]: particularly significant (P<0.001)
Average area ratio of hemicerebral infarction (%) ([3]; rat, in vivo, 50 mg/kg): 18.83%
activity for reducing the area ratio of hemicerebral infarction in SD rats (in words) ([3]; rat, in vivo, 50 mg/kg): particularly significant (P<0.001); also recorded: significantly better than Ginkgolide B and embodiment 10

2-(Ginkgolide B-10-oxy)morpholine Acetate [Embodiment 19]
Platelet aggregation rate (%, 1 μM) [1, 4]: 35.77%

2-(Ginkgolide B-10-oxy)triethylamine Acetate [Embodiment 15]
Platelet aggregation rate (%, 1 μM) [1, 4]: 24.65%

2-(Ginkgolide B-10-oxyethoxy)N-methyl-D-glucosamine Acetate [Embodiment 21]
Platelet aggregation rate (%, 1 μM) [1, 4]: 18.64%
inhibitory effect on platelet aggregation in vitro (in words) [1]: significant activity
Average maximum platelet aggregation rate (%) ([2]; n=10): 29.35%
Average area ratio of hemicerebral infarction (%) [3, 5]: 22.66%

2-(Ginkgolide B-10-oxyethoxy)sodium Acetate [Embodiment 20]
Platelet aggregation rate (%, 1 μM) [1, 4]: 45.32%

COC(=O)CO[C@H]1C(=O)O[C@H]2O[C@]34C(=O)OC5C[C@@H](C(C)(C)C)C21[C@@]53[C@@H](O)[C@@H]1OC(=O)C(C)[C@@]14O (some centres unmarked) [Embodiment 1, 10-O-(methoxyformylmethyl) Ginkgolide B]
activity at 1 µM [1]: 30%

COC(=O)/C=C/CO[C@H]1C(=O)O[C@H]2O[C@]34C(=O)OC5C[C@@H](C(C)(C)C)C21[C@@]53[C@@H](O)[C@@H]1OC(=O)C(C)[C@@]14O (some centres unmarked) [Embodiment 2, 10-O-(methoxyformylallyl) Ginkgolide B]
inhibitory effect on platelet aggregation in vitro (in words) [1]: significant activity
activity at 1 µM [1]: 10.3%
Average maximum platelet aggregation rate (%) ([2]; n=10): 32.60%
Average area ratio of hemicerebral infarction (%) [3, 5]: 21.56%

CC1C(=O)O[C@H]2[C@H](O)[C@@]34C5C[C@@H](C(C)(C)C)C36[C@@H](OC(=O)[C@@H]6OCC(=O)OC(C)(C)C)O[C@@]4(C(=O)O5)[C@@]12O (some centres unmarked) [Embodiment 3, 10-O-(tert-butoxyformylmethyl) Ginkgolide B]
activity at 1 µM [1]: 26.1%

COC(=O)COCCO[C@H]1C(=O)O[C@H]2O[C@]34C(=O)OC5C[C@@H](C(C)(C)C)C21[C@@]53[C@@H](O)[C@@H]1OC(=O)C(C)[C@@]14O (some centres unmarked) [Embodiment 4, 10-O-(methoxyformylmethoxyethyl) Ginkgolide B]
activity at 1 µM [1, 4]: 46.7%

COC(=O)COCCOCCO[C@H]1C(=O)O[C@H]2O[C@]34C(=O)OC5C[C@@H](C(C)(C)C)C21[C@@]53[C@@H](O)[C@@H]1OC(=O)C(C)[C@@]14O (some centres unmarked) [Embodiment 5, 10-O-(methoxyformylmethoxyethoxyethyl) Ginkgolide B]
activity at 1 µM [1]: 39.3%

CC1C(=O)O[C@H]2[C@H](O)[C@@]34C5C[C@@H](C(C)(C)C)C36[C@@H](OC(=O)[C@@H]6OC/C=C/C(=O)O)O[C@@]4(C(=O)O5)[C@@]12O (some centres unmarked) [Embodiment 6, 4-(Ginkgolide B-10-oxy)-2-butenoic Acid]
activity at 1 µM [1, 4]: 45.7%

CC1C(=O)O[C@H]2[C@H](O)[C@@]34C5C[C@@H](C(C)(C)C)C36[C@@H](OC(=O)[C@@H]6OCC(=O)O)O[C@@]4(C(=O)O5)[C@@]12O (some centres unmarked) [Embodiment 7, 2-(Ginkgolide B-10-oxy)acetic Acid]
Platelet aggregation rate (%, 1 μM) [1, 4]: 17.66%
inhibitory effect on platelet aggregation in vitro (in words) [1]: significant activity
Average maximum platelet aggregation rate (%) ([2]; n=10, 50 mg/kg): 35.20%
Average area ratio of hemicerebral infarction (%) [3, 7]: 25.14%

CC1C(=O)O[C@H]2[C@H](O)[C@@]34C5C[C@@H](C(C)(C)C)C36[C@@H](OC(=O)[C@@H]6OCCOCC(=O)O)O[C@@]4(C(=O)O5)[C@@]12O (some centres unmarked) [Embodiment 8, 2-(Ginkgolide B-10-oxyethoxy)acetic Acid]
activity at 1 µM [1, 4]: 23.7%

CC1C(=O)O[C@H]2[C@H](O)[C@@]34C5C[C@@H](C(C)(C)C)C36[C@@H](OC(=O)[C@@H]6OCCOCCOCC(=O)O)O[C@@]4(C(=O)O5)[C@@]12O (some centres unmarked) [Embodiment 9, 2-(Ginkgolide B-10-oxyethoxyethoxy)acetic Acid]
activity at 1 µM [1, 4]: 35%

CC1C(=O)O[C@H]2[C@H](O)[C@@]34C5C[C@@H](C(C)(C)C)C36[C@@H](OC(=O)[C@@H]6OCC(=O)O)O[C@@]4(C(=O)O5)[C@@]12O (some centres unmarked) [Embodiment 10, 2-(Ginkgolide B-10-oxy)sodium Acetate]
Platelet aggregation rate (%, 1 μM) [1, 4]: 39.34%
Average maximum platelet aggregation rate (%) ([2]; n=10, 50 mg/kg): 42.20%
Average area ratio of hemicerebral infarction (%) [3, 7]: 29.61%

CC1C(=O)OC2C(O)C34C5CC(C(C)(C)C)C36C(OC(=O)C6O)OC4(C(=O)O5)C12O (centres unmarked) [Ginkgolide B]
Platelet aggregation rate (%, 1 μM) [1, 4]: 63.42%
Average maximum platelet aggregation rate (%) ([2]; n=10): 39.57%
Average area ratio of hemicerebral infarction (%) [3, 5]: 26.12%
